Test results: patent US20100284927A1, “USE OF MRI CONTRAST AGENTS FOR EVALUATING THE TREATMENT OF TUMORS” (University of Utah Research Foundation, priority 2007, published 2010)
Several values for one entry are separate records, joined by “and”; a condition that tells them apart may be missing. Equal values may be shown once. Marks after values point to notes of the source that are not given here.

What was measured:
[1] = tested on: MDA-MB-231 human breast cancer tumors; assay: Contrast enhanced 2D spin echo MRI, SI enhancement of tumors (section I); assay type: in vivo, athymic nude mice; conditions: 2D SE images; for SI enhancement ratio (SI post/SI pre) of the whole untreated tumor: Gd-(DTPA-BMA) 0.1 mmol-Gd/kg, GDCC-40 0.05 mmol-Gd/kg i.v.; for residual tumor enhancement ratio (SI post/SI pre): residual tumor after treatment, Gd-(DTPA-BMA) 0.1, GDCC-40 0.05 mmol-Gd/kg i.v.
[2] = tested on: HT-29 human colon carcinoma; assay: DCE-MRI assessment of anti-angiogenic effect of Avastin, K^trans and fPV of tumor rim; assay type: in vivo, NCr-nu/nu nude mice; conditions: for K^trans 36 h after treatment / fpv 36 h after treatment: 36 h after initiating Avastin 200 μg/mouse i.p.; for K^trans 7 days after treatment / fpv 7 days after treatment: 7 days after initiating Avastin 200 μg/mouse i.p. every 2 days; for K^trans pretreatment / fpv pretreatment: before Avastin, GDCC40K 0.05, Omniscan 0.1 mmol-Gd/kg
[3] = tested on: MDA-MB-231 human breast cancer tumors; assay: DCE-MRI with linear compartmental model, PV and FLR, SI time curves (section I); assay type: in vivo, athymic nude mice; conditions: for FLR, tumor center / FLR, tumor rim / FLR, whole tumor: fractional leakage rate; for FLR, tumor center / FLR, tumor rim / FLR, whole tumor / PV, tumor center / PV, tumor rim / PV, whole tumor: GDCC-40 0.05, Gd-DTPA-BMA 0.1 mmol-Gd/kg; for PV, tumor center / PV, tumor rim / PV, whole tumor: plasma volume; for PV values (range over tumor regions, Table 5) / estimated FLR values (range over tumor regions, Table 5): tumor center to tumor rim
[4] = tested on: MDA-MB-231 human breast cancer tumors; assay: 2D spin echo MRI with various doses of GDCC-40 (section II); assay type: in vivo, athymic nude mice; conditions: 2D SE images
[5] = tested on: MDA-MB-231 human breast cancer tumors; assay: DCE-MRI with linear compartmental model, PV, FLR and PS (section II); assay type: in vivo, athymic nude mice
[6] = reference (36); cited from earlier work
[7] = tested on: HT-29 human colon carcinoma; assay: Effect of Avastin on growth of HT-29 colon cancer; assay type: in vivo, NCr-nu/nu nude mice; conditions: 36 h after Avastin-treatment, 200 μg/mouse i.p.; pre-treatment 508±185 mm^3
Experimental: The study protocol was approved by the local ethics committee for animal care and use. HT-29 human colon carcinoma cell line was purchased from American Type Culture Collection (ATCC, Manassas, Va.) with ATCC number HTB-38™. HT-29 cell line was cultured using ATCC complete growth medium (5 McCoy's Medium with 10% fetal bovine serum).
Athymic female NCr-nu/nu nude mice at 4 weeks were purchased form National Cancer Institute at Frederick, M D. Concentrated HT-29 cells in complete medium was mixed with Matrigel basement membrane matrix (BD Biosciences, San Jose, Calif.) at 1:1 ratio. 2×10^6 cells in 100 μl mixture were implanted s.c. in the flank of 12 mice weighing about 23 g.
Animals were selected for study when the tumors reached approximately 1 cm in diameter (about 3 weeks after tumor cells inoculation) and were randomly divided into two groups (each group n=6, group1 and group2). One group (group1) underwent DCE-MRI with macromolecular contrast agent-GDCC40K (MW: 40 KDa), and another group (group2) underwent DCE-MRI with small molecular weight contrast agent—Ominiscan (MW: 574 Da). Before treatment, Ominiscan was injected at 0.1 mmol-Gd/kg for […], GDCC40OK (40K Da) was injected at 0.05 mmol-Gd/kg for […]. […]
In addition, tumor size of all animals was determined using a caliper during the study.

human VEGF-A = conditions: in vivo; cited from earlier work
[8] = in mice body; cited from earlier work

Chain of human VEGF-A (P15692 207-311 limits assumed): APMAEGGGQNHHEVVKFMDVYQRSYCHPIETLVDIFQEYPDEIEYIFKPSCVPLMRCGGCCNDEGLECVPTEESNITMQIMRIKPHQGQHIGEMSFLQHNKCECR

| Compound | SI enhancement ratio (SI post/SI pre) of the whole untreated tumor [1] | residual tumor enhancement ratio (SI post/SI pre) [1] | K^trans 36 h after treatment [2] | fpv 36 h after treatment [2] | K^trans 7 days after treatment [2] | fpv 7 days after treatment [2] | K^trans pretreatment [2] | fpv pretreatment [2] | time at which SI of muscle reached plateau ([3]; DCE-MRI time course) | time at which SI of tumor rim reached a maximum ([3]; DCE-MRI time course) | FLR, tumor center [3] | FLR, tumor rim [3] | FLR, whole tumor [3] | PV, tumor center [3] | PV, tumor rim [3] | PV, whole tumor [3] | PV values (range over tumor regions, Table 5) [3] | estimated FLR values (range over tumor regions, Table 5) [3] | other results |
| --- | --- | --- | --- | --- | --- | --- | --- | --- | --- | --- | --- | --- | --- | --- | --- | --- | --- | --- | --- |
| CNC(=O)CN(CCN(CCN(CC(=O)[O-])CC(=O)NC)CC(=O)[O-])CC(=O)[O-].[Gd+3] [Gd-DTPA-BMA, gadodiamide, reference compound] | 1.60±0.19 | 1.66±0.10 | 0.066 ± 0.047 | 0.062 ± 0.039 | 0.069 ± 0.055 | 0.137 ± 0.034 | 0.07 ± 0.013 | 0.102 ± 0.047 | about 1.5 min | ~7 min | 9.93 ± 3.19 h⁻¹ | 28.42 ± 4.36 h⁻¹ | 20.86 ± 1.18 h⁻¹ | 0.098 ± 0.019 | 0.190 ± 0.018 | 0.138 ± 0.020 | 0.098 to 0.190 | 14.93 to 28.42 h⁻¹ | time at which tumor rim/muscle SI ratio reached plateau ([3]; DCE-MRI time course): ≤ 2 min |
| (Gd-DTPA)-cystamine copolymers [GDCC-40] | 1.65±0.21 | 1.51±0.19 | 0.008 ± 0.004 | 0.008 ± 0.005 | 0.028 ± 0.029 | 0.030 ± 0.022 | 0.014 ± 0.002 | 0.028 ± 0.005 | about 1.5 min | about 12 min | 3.24 ± 1.10* 1/hr | 5.21 ± 0.88* 1/hr | 4.57 ± 0.91* 1/hr | 0.058 ± 0.046 | 0.082 ± 0.038 | 0.076 ± 0.032 | 0.058 to 0.082 | 3.24 to 5.21 h⁻¹ | untreated tumor enhancement ([4]; 0.01 mmol-Gd/kg): 0.14±0.03; untreated tumor enhancement ([4]; 0.025 mmol-Gd/kg): 0.26±0.05; untreated tumor enhancement ([4]; 0.05 mmol-Gd/kg): 0.62±0.19; FLR, untreated tumor ([5]; 0.01 mmol-Gd/kg): 6.05 and 6.05 ± 3.58; PS, untreated tumor ([5]; 0.01 mmol-Gd/kg): 0.997 ± 0.613; PV, untreated tumor ([5]; 0.01 mmol-Gd/kg): 0.124 and 0.124 ± 0.045; FLR, untreated tumor ([5]; 0.025 mmol-Gd/kg): 5.06 and 5.06 ± 1.84; PS, untreated tumor ([5]; 0.025 mmol-Gd/kg): 0.611 ± 0.351; PV, untreated tumor ([5]; 0.025 mmol-Gd/kg): 0.123 and 0.123 ± 0.059; FLR, untreated tumor ([5]; 0.05 mmol-Gd/kg): 3.95 ± 0.81; PS, untreated tumor ([5]; 0.05 mmol-Gd/kg): 0.517 ± 0.216; PV, untreated tumor ([5]; 0.05 mmol-Gd/kg): 0.103 ± 0.043; ratio of SI at the tumor rim to SI of the muscle ([3]; at 15 min): more than 3; time after injection to reach contrast (SI of tumor rim to SI of muscle) similar to Gd-DTPA-BMA ([3]; mouse, in vivo): about 4 min |
| Albumin-Gd-DTPA | – | – | – | – | – | – | – | – | – | – | – | – | – | – | – | – | – | – | FLR values estimated using Albumin-Gd-DTPA [6]: 1.27 to 8.10 h⁻¹; PV values estimated using Albumin-Gd-DTPA [6]: 0.023 to 0.065 |
| Bevacizumab [Avastin] | – | – | – | – | – | – | – | – | – | – | – | – | – | – | – | – | – | – | tumor size [7]: 510±171 mm^3; dose enough to completely inhibit human VEGF-A (human VEGF-A): 50-100 μg/mouse; terminal half-life [8]: 1-2 weeks |
